PubChem BioAssay AID1963449 (Molecular Pharmacology Branch, DTP, NCI, 2024)
Values belong to the compound of their own block, whether it stands above or below them.

System: 596521-263-R-J1-PDC complex spheroid growth
Test: Anticancer human tumor 596521-263-R-J1-PDC patient-derived soft tissue sarcoma cell line growth inhibition [Asc]
Conditions: for IC50: curve of first compound; for viability, T/C: stronger effect = lower value
In short: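 Complex spheroids combining tumor cells with HUVEC endothelial cells and human MSCs, at 37 degrees C, 5% CO2; agents tested alone or combined, half-log dilutions from at or near clinical Cmax, or 10 microM if Cmax unknown.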

[1] = second compound 0.00316 µM, first compound 0.00316 µM
[2] = second compound 0.00316 µM, first compound 0.01 µM
[3] = second compound 0.00316 µM, first compound 0.0316 µM
[4] = second compound 0.00316 µM, first compound 0.1 µM
[5] = second compound 0.00316 µM, first compound 0.316 µM
[6] = second compound 0.00316 µM, first compound 1 µM
[7] = second compound 0.01 µM, first compound 0.00316 µM
[8] = second compound 0.01 µM, first compound 0.01 µM
[9] = second compound 0.01 µM, first compound 0.0316 µM
[10] = second compound 0.01 µM, first compound 0.1 µM
[11] = second compound 0.01 µM, first compound 0.316 µM
[12] = second compound 0.01 µM, first compound 1 µM
[13] = second compound 0.0316 µM, first compound 0.00316 µM
[14] = second compound 0.0316 µM, first compound 0.01 µM
[15] = second compound 0.0316 µM, first compound 0.0316 µM
[16] = second compound 0.0316 µM, first compound 0.1 µM
[17] = second compound 0.0316 µM, first compound 0.316 µM
[18] = second compound 0.0316 µM, first compound 1 µM
[19] = second compound 0.1 µM, first compound 0.00316 µM
[20] = second compound 0.1 µM, first compound 0.01 µM
[21] = second compound 0.1 µM, first compound 0.0316 µM
[22] = second compound 0.1 µM, first compound 0.1 µM
[23] = second compound 0.1 µM, first compound 0.316 µM
[24] = second compound 0.1 µM, first compound 1 µM
[25] = second compound 0.316 µM, first compound 0.00316 µM
[26] = second compound 0.316 µM, first compound 0.01 µM
[27] = second compound 0.316 µM, first compound 0.0316 µM
[28] = second compound 0.316 µM, first compound 0.1 µM
[29] = second compound 0.316 µM, first compound 0.316 µM
[30] = second compound 0.316 µM, first compound 1 µM
[31] = second compound 1 µM, first compound 0.00316 µM
[32] = second compound 1 µM, first compound 0.01 µM
[33] = second compound 1 µM, first compound 0.0316 µM
[34] = second compound 1 µM, first compound 0.1 µM
[35] = second compound 1 µM, first compound 0.316 µM
[36] = second compound 1 µM, first compound 1 µM
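Also: spheroids exposed to compounds for 7 days.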

- IC50 (second compound 0.00316 µM): > 1000 nM
- IC50 (second compound 0.01 µM): > 1000 nM
- IC50 (second compound 0.0316 µM): > 1000 nM
- IC50 (second compound 0.1 µM): > 1000 nM
- IC50 (second compound 0.316 µM): > 1000 nM
- IC50 (second compound 1 µM): > 1000 nM
Compound: CCN1CCN(Cc2ccc(Nc3ncc(F)c(-c4cc(F)c5nc(C)n(C(C)C)c5c4)n3)nc2)CC1 + CNC(C)C(=O)NC1CN(S(=O)(=O)c2cccc(S(=O)(=O)N3CCC4CCC(C(=O)NC(c5ccccc5)c5ccccc5)N4C(=O)C(NC(=O)C(C)NC)C3)c2)CCC2CCC(C(=O)NC(c3ccccc3)c3ccccc3)N2C1=O
- viability, T/C [1]: 90.8%
- viability, T/C [2]: 81.4%
- viability, T/C [3]: 77%
- viability, T/C [4]: 79.8%
- viability, T/C [5]: 81.7%
- viability, T/C [6]: 74.1%
- viability, T/C [7]: 98.6%
- viability, T/C [8]: 87.5%
- viability, T/C [9]: 81.2%
- viability, T/C [10]: 84.6%
- viability, T/C [11]: 81.6%
- viability, T/C [12]: 91.3%
- viability, T/C [13]: 79.9%
- viability, T/C [14]: 83.4%
- viability, T/C [15]: 79%
- viability, T/C [16]: 76.8%
- viability, T/C [17]: 93.5%
- viability, T/C [18]: 76%
- viability, T/C [19]: 73%
- viability, T/C [20]: 78.8%
- viability, T/C [21]: 76%
- viability, T/C [22]: 86%
- viability, T/C [23]: 79.7%
- viability, T/C [24]: 84.8%
- viability, T/C [25]: 75.4%
- viability, T/C [26]: 78.1%
- viability, T/C [27]: 74.8%
- viability, T/C [28]: 77.3%
- viability, T/C [29]: 84.7%
- viability, T/C [30]: 78.3%
- viability, T/C [31]: 70.4%
- viability, T/C [32]: 76%
- viability, T/C [33]: 72.3%
- viability, T/C [34]: 70.7%
- viability, T/C [35]: 72.7%
- viability, T/C [36]: 69.4%

- IC50 (second compound 0.00316 µM): 20.4 nM
- IC50 (second compound 0.01 µM): 25.6 nM
- IC50 (second compound 0.0316 µM): 21.4 nM
- IC50 (second compound 0.1 µM): 18.1 nM
- IC50 (second compound 0.316 µM): 17.6 nM
- IC50 (second compound 1 µM): 12.5 nM
Compound: NC(=O)C(=Cn1cnc(-c2cc(C(F)(F)F)cc(C(F)(F)F)c2)n1)c1cncnc1 + CNC(C)C(=O)NC1CN(S(=O)(=O)c2cccc(S(=O)(=O)N3CCC4CCC(C(=O)NC(c5ccccc5)c5ccccc5)N4C(=O)C(NC(=O)C(C)NC)C3)c2)CCC2CCC(C(=O)NC(c3ccccc3)c3ccccc3)N2C1=O
- viability, T/C (second compound 0.00316 µM, first compound 0.000949 µM): 99.8%
- viability, T/C (second compound 0.00316 µM, first compound 0.003 µM): 94.3%
- viability, T/C (second compound 0.00316 µM, first compound 0.00949 µM): 67.1%
- viability, T/C (second compound 0.00316 µM, first compound 0.03 µM): 42.8%
- viability, T/C (second compound 0.00316 µM, first compound 0.0949 µM): 16.1%
- viability, T/C (second compound 0.00316 µM, first compound 0.3 µM): 10.4%
- viability, T/C (second compound 0.01 µM, first compound 0.000949 µM): 101%
- viability, T/C (second compound 0.01 µM, first compound 0.003 µM): 101%
- viability, T/C (second compound 0.01 µM, first compound 0.00949 µM): 84.3%
- viability, T/C (second compound 0.01 µM, first compound 0.03 µM): 44.9%
- viability, T/C (second compound 0.01 µM, first compound 0.0949 µM): 14.8%
- viability, T/C (second compound 0.01 µM, first compound 0.3 µM): 9.7%
- viability, T/C (second compound 0.0316 µM, first compound 0.000949 µM): 102%
- viability, T/C (second compound 0.0316 µM, first compound 0.003 µM): 93.7%
- viability, T/C (second compound 0.0316 µM, first compound 0.00949 µM): 75.8%
- viability, T/C (second compound 0.0316 µM, first compound 0.03 µM): 38.6%
- viability, T/C (second compound 0.0316 µM, first compound 0.0949 µM): 18.7%
- viability, T/C (second compound 0.0316 µM, first compound 0.3 µM): 10.5%
- viability, T/C (second compound 0.1 µM, first compound 0.000949 µM): 93.6%
- viability, T/C (second compound 0.1 µM, first compound 0.003 µM): 89.4%
- viability, T/C (second compound 0.1 µM, first compound 0.00949 µM): 67.5%
- viability, T/C (second compound 0.1 µM, first compound 0.03 µM): 35.6%
- viability, T/C (second compound 0.1 µM, first compound 0.0949 µM): 14.6%
- viability, T/C (second compound 0.1 µM, first compound 0.3 µM): 5.92%
- viability, T/C (second compound 0.316 µM, first compound 0.000949 µM): 95.3%
- viability, T/C (second compound 0.316 µM, first compound 0.003 µM): 76.8%
- viability, T/C (second compound 0.316 µM, first compound 0.00949 µM): 71.3%
- viability, T/C (second compound 0.316 µM, first compound 0.03 µM): 33.8%
- viability, T/C (second compound 0.316 µM, first compound 0.0949 µM): 14.4%
- viability, T/C (second compound 0.316 µM, first compound 0.3 µM): 6.61%
- viability, T/C (second compound 1 µM, first compound 0.000949 µM): 85.8%
- viability, T/C (second compound 1 µM, first compound 0.003 µM): 81.8%
- viability, T/C (second compound 1 µM, first compound 0.00949 µM): 56.1%
- viability, T/C (second compound 1 µM, first compound 0.03 µM): 27.3%
- viability, T/C (second compound 1 µM, first compound 0.0949 µM): 11.2%
- viability, T/C (second compound 1 µM, first compound 0.3 µM): 7.61%

- IC50 (second compound 0.00316 µM): 179 nM
- IC50 (second compound 0.01 µM): 248 nM
- IC50 (second compound 0.0316 µM): 211 nM
- IC50 (second compound 0.1 µM): 187 nM
- IC50 (second compound 0.316 µM): 186 nM
- IC50 (second compound 1 µM): 149 nM
Compound: O=C(c1ccc(F)c(F)c1Nc1ccc(I)cc1F)N1CC(O)([C@@H]2CCCCN2)C1 + CNC(C)C(=O)NC1CN(S(=O)(=O)c2cccc(S(=O)(=O)N3CCC4CCC(C(=O)NC(c5ccccc5)c5ccccc5)N4C(=O)C(NC(=O)C(C)NC)C3)c2)CCC2CCC(C(=O)NC(c3ccccc3)c3ccccc3)N2C1=O
- viability, T/C [1]: 94%
- viability, T/C [2]: 89.4%
- viability, T/C [3]: 90.5%
- viability, T/C [4]: 63.4%
- viability, T/C [5]: 37.2%
- viability, T/C [6]: 27.1%
- viability, T/C [7]: 88.4%
- viability, T/C [8]: 75.8%
- viability, T/C [9]: 93.3%
- viability, T/C [10]: 69.6%
- viability, T/C [11]: 45.2%
- viability, T/C [12]: 27.8%
- viability, T/C [13]: 96.6%
- viability, T/C [14]: 87%
- viability, T/C [15]: 84.9%
- viability, T/C [16]: 61%
- viability, T/C [17]: 43.9%
- viability, T/C [18]: 27.3%
- viability, T/C [19]: 76.5%
- viability, T/C [20]: 73.3%
- viability, T/C [21]: 73%
- viability, T/C [22]: 65%
- viability, T/C [23]: 37.5%
- viability, T/C [24]: 22.8%
- viability, T/C [25]: 78.9%
- viability, T/C [26]: 91.6%
- viability, T/C [27]: 77.4%
- viability, T/C [28]: 65.9%
- viability, T/C [29]: 36.8%
- viability, T/C [30]: 23.8%
- viability, T/C [31]: 65.9%
- viability, T/C [32]: 68.8%
- viability, T/C [33]: 74.2%
- viability, T/C [34]: 53.2%
- viability, T/C [35]: 37.9%
- viability, T/C [36]: 18.3%
